# Source: US8124645B2, “LPA receptor antagonist” (Ono Pharmaceutical Co., Ltd., priority 2002, dated 2012)
# Target: T1, human EDG-2 (Homo sapiens, UniProt Q92633)
# T1 construct: expressed in transfected cells; host or cells: Chinese hamster ovary (CHO) cells
# Test: Evaluation of EDG-2 antagonistic activity by monitoring the change of intracellular calcium ion concentration
# Assay type: cell-based
# Conditions: CHO cells overexpressing human EDG-2 gene; LPA final concentration 100 nM; intracellular calcium ion concentration (Fura2-AM)
# Experimental: A series of the procedure is based on the basic gene manipuration technique, that is gene overexpressed cells are prepared and a conventional method was utilized. The usual method of measurement was improved for getting enhancement of measurement precision and/or measurement sensitivity of the evaluation of compounds in the present invention. A detailed method of the experiment was shown in the following clause.
# Evaluation of EDG-2 antagonistic activity by monitoring the change of intracellular calcium ion concentration
# Evaluation of EDG-2 antagonistic activity was carried out by using Chinese hamster ovary (CHO) cells which overexpressed human EDG-2 gene. Those cells were cultured with Ham's F12 medium (GIBCO BRL company No. 11765-047) containing 10% FBS (fetal bovine serum), penicillin/streptomycin and blasticidin (5 μg/ml). At first in order to uptake Fura2-AM (Dojindo company No. 348-05831) into the cells, cells were incubated for 60 minutes at 37 degrees in Fura2-AM (5 μM) solution [Ham's F12 medium containing 10% FBS, 20 mM HEPES buffer (pH 7.4) and 2.5 mM probenecid (Sigma company No. P-8761)]. Next, it was washed with Hanks solution containing HEPES buffer (20 mM, pH 7.4) and probenecid (2.5 mM) once, and immersed into the Hanks solution. Plates were set in fluorescent drug screening system (Hamamatsu photonics company, FDSS-2000) and intracellular calcium ion concentration was measured for 30 seconds with no stimulation and then solution of the compound of the present invention of formula (I) was added. Five minutes after adding thereto LPA (final concentration: 100 nM) was added, the increase of intracellular calcium ion concentrations before and after the addition of LPA (excitation wave length: […]; fluorescent wave length: […]) were measured every 3 seconds. The compound of the present invention represented by the formula (I) was dissolved in dimethyl sulfoxide (DMSO), and it was added so that the final concentration became 1 nM to 10 μM. 1-oleoyl (18:1)-LPA (Sigma) or 1-linolenoyl (18:3)-LPA was used as LPA. […]
# T1 sequence (Q92633 whole entry): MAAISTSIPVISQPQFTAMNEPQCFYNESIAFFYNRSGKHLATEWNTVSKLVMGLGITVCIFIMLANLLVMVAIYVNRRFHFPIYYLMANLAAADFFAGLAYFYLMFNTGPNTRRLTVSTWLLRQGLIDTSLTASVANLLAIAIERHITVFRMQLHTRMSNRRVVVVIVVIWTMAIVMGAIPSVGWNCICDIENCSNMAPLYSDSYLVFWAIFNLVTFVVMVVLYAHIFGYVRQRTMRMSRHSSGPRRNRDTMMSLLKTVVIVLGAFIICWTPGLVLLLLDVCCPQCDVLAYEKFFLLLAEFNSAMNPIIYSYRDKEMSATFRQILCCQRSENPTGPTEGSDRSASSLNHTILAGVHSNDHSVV
row,Compound,IC50 [nM]
1,"COc1cc(OC)cc(C(=O)N(CCCc2ccccc2)Cc2ccc(Oc3ccccc3C(=O)O)cc2)c1 [3(33), 2-(4-(N-(3,5-dimethoxyphenylcarbonyl)-N-(3-phenylpropyl)aminomethyl)phenyloxy)benzoic acid]",95
2,"COc1cc(C(=O)N(CCCc2ccccc2)Cc2ccc(CC(=O)O)cc2)cc(OC)c1C [Example 2(4), (4-(N-(3,5-dimethoxy-4-methylphenylcarbonyl)-N-(3-phenylpropyl)aminomethyl)phenyl)acetic acid]",150
3,"COc1cc(C(=O)C(CCCc2ccccc2)Cc2ccc(Oc3ccccc3C(=O)O)cc2)cc(OC)c1OC (stereo not drawn) [8(1), 2-(4-(2-(3,4,5-trimethoxyphenylcarbonyl)-5-phenylpentyl)phenyloxy)benzoic acid]",110
